Values of other authors as cited in patent US20210255187A1, “METHOD FOR PREDICTING THE EFFECTIVENESS OF TREATMENTS FOR CANCER PATIENTS” (University College Dublin, National University of Ireland, …, priority 2018, published 2021).

Test system: breast cancer cells

Which “AKT phosphorylation in response to doxorubicin” value does the source give for COc1cccc2c1C(=O)c1c(O)c3c(c(O)c1C2=O)C[C@@](O)(C(=O)CO)C[C@@H]3O[C@H]1C[C@H](N)[C@H](O)[C@H](C)O1 [doxorubicin] here?
Its value is “not changing”.
